Data on 13 compounds can be found in US4537773A, “α-Aminoboronic acid derivatives” (E. I. Du Pont de Nemours and Company, priority 1983, dated 1985).

The structures appear in SMILES notation. Counter-ions that a name gives are not always drawn.

The test system of one test is Leaf Hopper. As to the kind of experiment: Insecticidal activity, leaf hopper. The class given is in vivo. As to conditions: application rate of 5 lb./acre.
A further test has as its system Ant. As to the kind of experiment: Insecticidal activity, ant feeding. Type of test: in vivo. The note with it: application rate of 5 lb./acre.
Another test relates to Bollworm. The test is described as follows: Insecticidal activity, bollworm. Type of test: in vivo. The note with it: application rate of 5 lb./acre.
For a further test, the system named is Mite. As to the kind of experiment: Insecticidal activity, mite. Type of test: in vivo. As to conditions: application rate of 5 lb./acre.
A further test deals with Bean aphid. As to the kind of experiment: Insecticidal activity, bean aphid. The class given is in vivo. As to conditions: application rate of 5 lb./acre.
Test [1] deals with T1, Leucine aminopeptidase (Microsomal) (LAPM) (Sus scrofa, UniProt P15145).
T1 construct: (LAPM) from hog kidney; from tissue; host or cells: hog kidney
T1 sequence (P15145 1-963): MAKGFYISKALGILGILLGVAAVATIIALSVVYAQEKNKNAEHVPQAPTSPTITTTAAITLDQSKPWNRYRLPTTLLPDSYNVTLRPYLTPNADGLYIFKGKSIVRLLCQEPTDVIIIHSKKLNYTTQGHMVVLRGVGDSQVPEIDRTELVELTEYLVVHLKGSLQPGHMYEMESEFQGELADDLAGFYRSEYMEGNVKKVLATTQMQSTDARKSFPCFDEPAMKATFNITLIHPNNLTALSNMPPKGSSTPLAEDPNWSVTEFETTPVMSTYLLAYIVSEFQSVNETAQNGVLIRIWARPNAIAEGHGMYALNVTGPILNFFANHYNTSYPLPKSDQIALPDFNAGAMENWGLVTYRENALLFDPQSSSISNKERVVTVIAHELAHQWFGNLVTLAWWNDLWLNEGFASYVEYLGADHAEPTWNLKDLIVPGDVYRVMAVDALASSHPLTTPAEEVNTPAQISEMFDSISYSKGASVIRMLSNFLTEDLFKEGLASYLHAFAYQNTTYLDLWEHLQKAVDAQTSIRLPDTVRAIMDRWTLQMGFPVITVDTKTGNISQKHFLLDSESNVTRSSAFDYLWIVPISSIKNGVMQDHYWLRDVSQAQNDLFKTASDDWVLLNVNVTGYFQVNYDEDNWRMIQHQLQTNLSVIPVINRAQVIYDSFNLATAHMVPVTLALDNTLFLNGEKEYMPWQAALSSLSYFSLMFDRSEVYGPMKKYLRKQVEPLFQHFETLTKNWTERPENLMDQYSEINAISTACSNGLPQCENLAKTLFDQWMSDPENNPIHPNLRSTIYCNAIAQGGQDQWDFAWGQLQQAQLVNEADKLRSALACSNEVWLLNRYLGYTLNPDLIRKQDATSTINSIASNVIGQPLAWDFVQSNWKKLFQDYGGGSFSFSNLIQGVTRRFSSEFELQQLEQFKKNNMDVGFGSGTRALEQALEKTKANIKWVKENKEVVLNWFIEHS
As to the kind of experiment: IC50 with leucine aminopeptidase (microsomal). The class given is biochemical, hog. The note with it: 72 hours at 0°-5°, pH 7.2, substrate (L)-leucine-β-napthylamide, fluorescence. From the text: (§1) An IC50 value represents an approximation of the concentration of enzyme inhibitor required to inhibit enzyme activity by fifty percent. These values represent acceptable approximations of the inhibition constant KI, the dissociation constant in the following equation: [formula] where [E] is the concentration of enzyme, [I] is the concentration of inhibitor and [EI] is the concentration of enzyme/inhibitor complex.
(§2) Determination of IC50 values for LAPC and LAPM was accomplished by spectrophotometrically or fluorometrically following the rate of formation of p-nitroaniline or β-naphthylamine from hydrolysis of (L)-leucine-p-nitroanilide or (L)-leucine-β-napthylamide, respectively, in the presence of active enzyme. IC50 values for HEDA were determined by monitoring, via high pressure liquid chromatography, the formation of destyr-enkephalin from leu-enkephalin.
Assay mixtures were prepared containing 0.613 μg LAPM, 10 μg/mL bovine serum albumin (BSA). 0.1M phosphate buffer, pH 7.2, in a total volume of 2.7 mL. Measured amounts of compounds 5 to be tested for inhibitory activity were added in additional 0.1M phosphate buffer to a total volume of 3 mL. After 72 hours at 0°-5°, 1 mL of the enzyme/inhibitor mixture was treated with 4 μL of 0.2M (L)-leucine-β-napthylamide in dimethylsulfoxide, and the rate of increase of fluorescence at 410 nm, while exciting at 310 nm. was measured. Control experiments were performed identically, except no inhibitor was present. The concentration of the selected compound 5 observed to decrease reaction rates by one-half was used to determine the value of IC50 for each compound. This was accomplished by subtracting one-half the concentration of enzyme present in the sample mixtures (1.6×10^-9 M) from the inhibitor concentration observed to decrease reaction rates by one-half.

Test [2] has as its target T2, Leucine aminopeptidase (cytosolic) (LAPC) (Sus scrofa, UniProt P28839).
T2 construct: (LAPC) from hog kidney; from tissue; host or cells: hog kidney
T2 sequence (P28839 33-519 limits assumed): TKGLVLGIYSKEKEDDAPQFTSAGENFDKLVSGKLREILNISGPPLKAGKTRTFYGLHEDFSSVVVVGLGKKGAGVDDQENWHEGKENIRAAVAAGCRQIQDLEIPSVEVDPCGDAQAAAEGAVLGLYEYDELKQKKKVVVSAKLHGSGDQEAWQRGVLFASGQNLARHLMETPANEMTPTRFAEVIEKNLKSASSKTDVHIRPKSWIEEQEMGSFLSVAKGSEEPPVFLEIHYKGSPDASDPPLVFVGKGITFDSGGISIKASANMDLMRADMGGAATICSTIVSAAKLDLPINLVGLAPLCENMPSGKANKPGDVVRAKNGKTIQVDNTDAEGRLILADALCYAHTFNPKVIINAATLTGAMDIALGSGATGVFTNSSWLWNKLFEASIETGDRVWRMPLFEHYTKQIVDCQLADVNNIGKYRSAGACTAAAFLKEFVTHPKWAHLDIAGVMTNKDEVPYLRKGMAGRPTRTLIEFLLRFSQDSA
The test is described as follows: IC50 with leucine aminopeptidase (cytosolic). Type of test: biochemical, hog. The note with it: 112 hours at 0°-5°, pH 8.5, substrate (L)-leucine-p-nitroanilide, absorption at 405 nm.
Description: as §1, §2
Assay mixtures were prepared, containing 10×10^-8 M LAPC, 1 mg/mL BSA, 0.025M MgCl2 and 0.01M tris-HCl buffer, pH 8.5, in a total volume of 2.7 mL. Varying amounts of selected compounds 5, dissolved in the same buffer, were added to make a final volume of 3.0 mL. After storage for 112 hours at 0°-5°, 1 mL of this mixture was treated with 25 μL of a 0.1M (L)-leucine-p-nitroanilide in dimethylsulfoxide, and the rate of increase of absorption at 405 nm was measured. IC50 values were calculated as in Example 26, above.

Test [3] addresses Human enkephalin-degrading aminopeptidase (HEDA). The test is described as follows: IC50 with human enkephalin-degrading aminopeptidase. The class given is biochemical. The note with it: incubated at 37° for 2 hours, pH 7.8, substrate leu-enkephalin, HPLC. From the text:
An IC50 value represents an approximation of the concentration of enzyme inhibitor required to inhibit enzyme activity by fifty percent. These values represent acceptable approximations of the inhibition constant KI, the dissociation constant in the following equation: [formula] where [E] is the concentration of enzyme, [I] is the concentration of inhibitor and [EI] is the concentration of enzyme/inhibitor complex. Determination of IC50 values for LAPC and LAPM was accomplished by spectrophotometrically or fluorometrically following the rate of formation of p-nitroaniline or β-naphthylamine from hydrolysis of (L)-leucine-p-nitroanilide or (L)-leucine-β-napthylamide, respectively, in the presence of active enzyme. IC50 values for HEDA were determined by monitoring, via high pressure liquid chromatography, the formation of […]-enkephalin from leu-enkephalin. […] At this point, 15 μL of a 10 mM solution of leu-enkephalin, acetic acid salt in 2 mM phosphate buffer, pH 7.8, were added to each sample mixture. […] Detection was by ultraviolet absorption at 215 nm. A ratio of a peak corresponding to ([…])-enkephalin at about […] and a peak corresponding to leu-enkephalin at about 3.9 min. indicated reaction progress. The rate of increase of this ratio corresponded to the rate of enzyme hydrolysis of substrate leu-enkephalin.

The target in a further test is α-chymotrypsin (Bos taurus, UniProt P00766). The note with it: Matteson et al., J. Am. Chem. Soc. 103:5241 (1981); cited from earlier work.
In a further test the test system is subtilisin. As to conditions: Philipp, et al., FEBS Letters 133:36 (1971); cited from earlier work.

For `CC(C)CB1OC(C)(C)C(C)(C)O1` [2 (R=CH3 CH(CH3)2), 4,4,5,5-tetramethyl-2-(2-methylpropyl)-1,3,2-dioxaborolane], the “Leaf Hopper, % control” value with Leaf Hopper is reported as 50%. Consider `CB1OC(C)(C)C(C)(C)O1` [2 (R=CH3), 2,4,4,5,5-pentamethyl-1,3,2-dioxaborolane], for which the “Ant Feeding, % control” value in the test with Ant came to 31%. In the case of `CCC(C)B1OC(C)(C)C(C)(C)O1` (stereo not drawn) [2 (R=CH(CH3)C2 H5), 2-(1-methylpropyl)-4,4,5,5-tetramethyl-1,3,2-dioxaborolane], the “Bollworm, % control” value with Bollworm was 20%. As to `CC1(C)OB(Cc2ccccc2)OC1(C)C` [2 (R=CHC6 H5), 4,4,5,5-tetramethyl-2-(phenylmethyl)-1,3,2-dioxaborolane], the “Mite, % control” value in the test on Mite is 70%. On the same count and under the same terms, in the case of `CC(C)CC(Cl)B1OC(C)(C)C(C)(C)O1` (stereo not drawn) [3 (R=CH3 CH(CH3)2), 2-(1-chloro-3-methylbutyl)-4,4,5,5-tetramethyl-1,3,2-dioxaborolane] it was 64%. For the compound `CCC(C)C(Cl)B1OC(C)(C)C(C)(C)O1` (stereo not drawn) [3 (R=CH(CH3)C2 H5), 2-(1-chloro-2-methylbutyl)-4,4,5,5-tetramethyl-1,3,2-dioxaborolane], the “Bean aphid, % control” value in the test on Bean aphid was 39%. Still for that read-out and setting: in the case of `CC1(C)OB(C(Cl)Cc2ccccc2)OC1(C)C` (stereo not drawn) [3 (R=CHC6 H5), 2-(1-chloro-2-phenylethyl)-4,4,5,5-tetramethyl-1,3,2-dioxaborolane] it was 48%. For the compound `CC1(C)OB(C(N)Cc2ccccc2)OC1(C)C` (stereo not drawn) [5 (R=CH2 C6 H5), 4,4,5,5-tetramethyl-α-(phenylmethyl)-1,3,2-dioxoborolane-2-methanamine, trifluoroacetic acid salt], the figures for the IC50 in [1], in test [2] and in test [3] were 0.0002 µM, 0.01 µM and 0.0052 µM, respectively. The matching figures for `CC(C)CC(N)B1OC(C)(C)C(C)(C)O1` (stereo not drawn) [5 (R=CH2 CH(CH3)2), 3-methyl-1-(4,4,5,5-tetramethyl-1,3,2-dioxaborolane-2-yl)-1-butamine, trifluoroacetic acid salt]: 0.0012 µM, 0.15 µM and 0.0074 µM. Regarding `CC(N)B1OC(C)(C)C(C)(C)O1` (stereo not drawn) [5 (R=CH3), α,4,4,5,5,pentamethyl-1,3,2-dioxoborolane-2-methanamine, trifluoroacetic acid salt], the 50% inhibitory concentration (IC50) in test [1] came out at 0.0064 µM; in test [2] it was 30 µM; in test [3] it was 0.071 µM. Turning to `CC(C)C(N)B1OC(C)(C)C(C)(C)O1` (stereo not drawn) [5 (R=CH(CH3)2), 4,4,5,5-tetramethyl-α-(1-methylethyl)-1,3,2-dioxaborolane-2-methanamine, trifluoroacetic acid salt], the concentration for half-maximal inhibition (IC50) in [1] was 0.00215 µM; in test [2], 0.07 µM; in test [3] it was 0.042 µM. The matching figures for `CCC(C)C(N)B1OC(C)(C)C(C)(C)O1` (stereo not drawn) [5 (R=CH(CH3)C2 H5), 4,4,5,5-tetramethyl-α-(1-methylpropyl)-1,3,2-dioxaborolane-2-methanamine, trifluoroacetic acid salt]: 0.0022 µM, 0.03 µM and 0.041 µM. In the case of `CC(=O)NC(Cc1ccccc1)B(O)O` (stereo not drawn) [IV], at α-chymotrypsin, the “inhibition of α-chymotrypsin” value is reported as “observed to inhibit”. Besides, the inhibition of subtilisin entry in the test on subtilisin was “inhibited”.
